Measured values as given in patent US20250313569A1, “Pharmaceutical Compounds And Compositions As Modulators Of MAS-Related G-Protein Receptor X2” (Enanta Pharmaceuticals, Inc., priority 2024, published 2025).

Legend:
[1] = molecular target: T1, human MRGPRX2 (Homo sapiens, UniProt Q96LB1); assay: MRGPRX2 IP-1 Gq HTRF assay in HEK293 cells stably expressing human MRGPRX2, Cortistatin-14 at EC75; type: cell-based; conditions: 2 hours at 37° C., cellular IP-1
T1 construct: expressed in transfected cells; host or cells: HEK293
T1 sequence (Q96LB1 1-330): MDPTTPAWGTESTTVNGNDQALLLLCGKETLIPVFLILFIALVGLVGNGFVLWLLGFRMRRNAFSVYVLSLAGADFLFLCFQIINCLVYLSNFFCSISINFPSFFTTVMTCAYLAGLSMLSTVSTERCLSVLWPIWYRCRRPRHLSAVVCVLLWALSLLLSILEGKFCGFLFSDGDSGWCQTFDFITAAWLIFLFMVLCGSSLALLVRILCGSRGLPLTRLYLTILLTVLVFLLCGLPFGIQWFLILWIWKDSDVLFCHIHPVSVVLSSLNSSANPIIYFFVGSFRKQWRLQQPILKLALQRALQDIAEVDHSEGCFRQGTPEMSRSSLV
Procedure: HEK293 cells stably expressing human MRGPRX2 were grown in Dulbecco's Modified Eagle Medium (DMEM) supplemented with 10% fetal bovine serum (FBS), 1% Glutamax, and 1 μg/mL of puromycin. Cells were maintained in a 37° C., 5% CO2 humidified incubator.
Cells were plated in a 384-well assay plate at a density of 20,000 cells per well overnight. Compounds were solubilized at 10 mM in DMSO and added as a 10-point curve using an ECHO acoustic liquid handler. On the day of the assay, Cortistatin-14 was diluted in assay buffer (provided by IP-One-Gq-HTRF kit purchased from Cisbio, 62IPAPEJ) and added to the assay plate at a final concentration corresponding to the predetermined EC75. Plates were incubated at 37° C. for 2 hours prior to addition of HTRF detection reagents per the manufacturer's instructions. The plates were read on a Perkin Elmer Envision plate reader. The HTRF ratio and cellular IP-1 levels were calculated. XLfit was used to calculate an EC50 value for each compound using a 4-parameter logistic curve fitting model. EC50 ranges are reported as follows: A<100 nM; B 0.1-1 μM; C>1 μM.

[2] = molecular target: T2, MRGPRX2 LAD2 (Homo sapiens, UniProt Q96LB1); assay: LAD2 β-hexosaminidase release assay (degranulation), Cortistatin-14 at EC75; type: cell-based; conditions: LAD2 cells; 1 hour compound incubation, Cortistatin-14 at EC75 for 30 minutes; percent degranulation (β-hexosaminidase)
T2 construct: host or cells: LAD2 human mast cells
T2 sequence (Q96LB1 1-330): T1 sequence (Q96LB1 1-330)
Procedure: LAD2 cells obtained from the NIH were cultured in StemPro34 (Gibco) serum-free media supplemented with GlutaMax, penicillin and streptomycin, and 100 ng/mL SCF (Invitrogen). Cells were maintained in a 37° C., 5% CO2 humidified incubator at a concentration of 2-5E5 cells/mL, with hemidepletion once a week.
One day prior to the assay, cells were starved of SCF at a concentration of 2.3E5 cells/mL. On the day of the assay cells were washed twice in Tyrode's Buffer containing 0.04% BSA (assay buffer) and plated in a 96 well-v-bottom assay plate at 20,000 cells per well in 80 μL of assay buffer. Compounds were solubilized at 10 mM DMSO and added as a 10-fold overconcentrated 8-point curve in assay buffer in a volume of 10 μL using the JANUS liquid handler. Assay plates were incubated for 1 hour at 37° C. Cortistatin-14 was diluted in assay buffer to […] its predetermined EC75 and added to the assay plates in a volume of 10 μL. Assay plates were incubated at 37° C. for 30 minutes. After incubation, cells were pelleted and 50 μL of supernatant from each well was transferred to a 96 well flat bottom plate containing 100 μL of substrate solution (3.5 mg/mL p-Nitrophenyl-N-acetyl-β-D-glucosaminide (Sigma Aldrich) in 40 mM Citrate Buffer (Thermo Fisher)). The remaining cell pellets were lysed with 150 μL of 0.1% Triton-X-100 and mixed thoroughly. 50 μL of lysate was transferred to a 96-well flat bottom plate containing 100 μL of substrate solution. Plates with supernatants and lysates were incubated at 37° C. for 90 minutes prior to addition of 50 μL of 400 mM Glycine buffer (pH 10.7). The plates were read on a Perkin Elmer Envision plate reader at an Abs of 405 nanometers. Percent degranulation was calculated and Xlfit was used to calculate an EC50 value for each compound using a 4-parameter logistic curve fitting model. EC50 ranges are reported as follows: A<100 nM; B 0.1-1 μM; C>1 μM.

Compound	EC50 [1]	EC50 [2]
CS(=O)(=O)Nc1cccc(C(=O)N[C@@H]2COC[C@H](Nc3cc(C(F)(F)F)nc4ccc(Cl)cc34)C2)c1 (racemic) [Example 44, N-(cis-5-((6-chloro-2-(trifluoromethyl)quinolin-4-yl)amino)tetrahydro-2H-pyran-3-yl)-3-(methylsulfonamido)benzamide]	< 100 nM	< 100 nM
CS(=O)(=O)Nc1cccc(C(=O)N[C@H]2C[C@@H](Nc3cc(C(F)(F)F)nc4ccc(Cl)cc34)CN(C(=O)c3ccccc3)C2)c1 [Example 1]	100 to 1000 nM	< 100 nM
CC(=O)N1C[C@@H](NC(=O)c2cccc(NS(C)(=O)=O)c2)C[C@@H](Nc2cc(C(F)(F)F)nc3ccc(Cl)cc23)C1 [Example 2]	< 100 nM	< 100 nM
CS(=O)(=O)Nc1cccc(C(=O)N[C@H]2C[C@@H](Nc3cc(C(F)(F)F)nc4ccc(Cl)cc34)CN(S(C)(=O)=O)C2)c1 [Example 3]	100 to 1000 nM	< 100 nM
CS(=O)(=O)Nc1cccc(C(=O)N[C@H]2C[C@@H](Nc3cc(C(F)(F)F)nc4ccc(Cl)cc34)CN(S(=O)(=O)c3ccccc3)C2)c1 [Example 4]	100 to 1000 nM	< 100 nM
COC(=O)N1C[C@@H](NC(=O)c2cccc(NS(C)(=O)=O)c2)C[C@@H](Nc2cc(C(F)(F)F)nc3ccc(Cl)cc23)C1 [Example 5]	< 100 nM	< 100 nM
CS(=O)(=O)Nc1cccc(C(=O)N[C@H]2C[C@@H](Nc3cc(C(F)(F)F)nc4ccc(Cl)cc34)CN(C(=O)C(F)(F)F)C2)c1 [Example 8]	100 to 1000 nM	< 100 nM
CNC(=O)N1C[C@@H](NC(=O)c2cccc(NS(C)(=O)=O)c2)C[C@@H](Nc2cc(C(F)(F)F)nc3ccc(Cl)cc23)C1 [Example 9]	100 to 1000 nM	100 to 1000 nM
CN(C)C(=O)N1C[C@@H](NC(=O)c2cccc(NS(C)(=O)=O)c2)C[C@@H](Nc2cc(C(F)(F)F)nc3ccc(Cl)cc23)C1 [Example 10]	100 to 1000 nM	< 100 nM
CC(=O)N1C[C@@H](NC(=O)c2cccc(C#N)c2)C[C@@H](Nc2cc(C(F)(F)F)nc3ccc(Cl)cc23)C1 [Example 24]	< 100 nM	< 100 nM
COc1ccc(C(=O)N[C@H]2C[C@@H](Nc3cc(C(F)(F)F)nc4ccc(Cl)cc34)CN(C(C)=O)C2)cc1 [Example 25]	< 100 nM	< 100 nM
CC(=O)N1C[C@@H](NC(=O)c2cnn(CC(F)(F)F)c2)C[C@@H](Nc2cc(C(F)(F)F)nc3ccc(Cl)cc23)C1 [Example 29]	< 100 nM	< 100 nM
CC(=O)N1C[C@@H](NC(=O)c2cnn(C)c2)C[C@@H](Nc2cc(C(F)(F)F)nc3ccc(Cl)cc23)C1 [Example 30]	< 100 nM	< 100 nM
CC(=O)N1C[C@@H](NC(=O)c2cnn(C3CC3)c2)C[C@@H](Nc2cc(C(F)(F)F)nc3ccc(Cl)cc23)C1 [Example 32]	100 to 1000 nM	100 to 1000 nM
CS(=O)(=O)Nc1cccc(C(=O)N[C@@H]2CNC[C@H](Nc3ccc(C#N)c(C(F)(F)F)c3)C2)c1 [Example 45]	> 1000 nM	–
CC(=O)N1C[C@@H](NC(=O)c2cccc(NS(C)(=O)=O)c2)C[C@@H](Nc2ccc(C#N)c(C(F)(F)F)c2)C1 [Example 46]	> 1000 nM	–
CC(=O)N1C[C@H](Nc2cc(C(F)(F)F)nc3ccc(Cl)cc23)C[C@H](N(C)C(=O)c2cnn(C)c2)C1 [Example 47]	> 1000 nM	–
CN1C[C@@H](NC(=O)c2cccc(NS(C)(=O)=O)c2)C[C@@H](Nc2cc(C(F)(F)F)nc3ccccc23)C1 [Example 51]	> 1000 nM	–
CN1C[C@@H](NC(=O)c2cccc(NS(C)(=O)=O)c2)C[C@@H](N(C)c2cc(C(F)(F)F)nc3ccccc23)C1 [Example 52]	> 1000 nM	–
CS(=O)(=O)Nc1cccc(NC(=O)[C@@H]2COC[C@H](Nc3cc(C(F)(F)F)nc4ccc(Cl)cc34)C2)c1 [Example 53]	< 100 nM	–

Compound	EC50 [1]	EC50 [2]
CS(=O)(=O)Nc1cccc(-c2cn([C@@H]3CNC[C@H](Nc4cc(C(F)(F)F)nc5ccc(Cl)cc45)C3)nn2)c1 [Example 54, N-(3-(1-((3S,5R)-5-((6-Chloro-2-(trifluoromethyl)quinolin-4-yl)amino)piperidin-3-yl)-1H-1,2,3-triazol-4-yl)phenyl) methanesulfonamide]	100 to 1000 nM	–
CC(=O)N1C[C@H](Nc2cc(C(F)(F)F)nc3ccc(Cl)cc23)C[C@H](n2cc(-c3cccc(NS(C)(=O)=O)c3)nn2)C1 [Example 55]	100 to 1000 nM	–
COc1cc(C(=O)N[C@H]2C[C@@H](Nc3cc(C(F)(F)F)nc4ccc(Cl)cc34)CN(C(C)=O)C2)cc2cn(C(F)F)nc12 [Example 56]	< 100 nM	–
CCn1cc2cc(C(=O)N[C@H]3C[C@@H](Nc4cc(C(F)(F)F)nc5ccc(Cl)cc45)CN(C(C)=O)C3)ccc2n1 [Example 57]	< 100 nM	–
CC(=O)N1C[C@@H](NC(=O)c2ccc3[nH]ncc3c2)C[C@@H](Nc2cc(C(F)(F)F)nc3ccc(Cl)cc23)C1 [Example 58]	< 100 nM	–
CC(=O)N1C[C@@H](NC(=O)c2cn(C(F)F)nc2C(F)F)C[C@@H](Nc2cc(C(F)(F)F)nc3ccc(Cl)cc23)C1 [Example 59]	< 100 nM	–
COc1cc(C(=O)N[C@H]2C[C@@H](Nc3cc(C(F)(F)F)nc4ccc(Cl)cc34)CN(C(C)=O)C2)ccc1OC1CC1 [Example 60]	100 to 1000 nM	–
CC(=O)N1C[C@@H](NC(=O)c2cnn(CC3CC3)c2)C[C@@H](Nc2cc(C(F)(F)F)nc3ccc(Cl)cc23)C1 [Example 61]	< 100 nM	–
CC(=O)N1C[C@@H](NC(=O)c2ccc(C)nc2)C[C@@H](Nc2cc(C(F)(F)F)nc3ccc(Cl)cc23)C1 [Example 62]	100 to 1000 nM	–
CC(=O)N1C[C@@H](NC(=O)c2ccc(C(F)(F)F)nc2)C[C@@H](Nc2cc(C(F)(F)F)nc3ccc(Cl)cc23)C1 [Example 63]	100 to 1000 nM	–
CC(=O)N1C[C@@H](NC(=O)c2cnn(CC(C)(C)O)c2)C[C@@H](Nc2cc(C(F)(F)F)nc3ccc(Cl)cc23)C1 [Example 64]	< 100 nM	–
CC(=O)N1C[C@@H](NC(=O)c2cn(CC(C)(C)O)nc2Cl)C[C@@H](Nc2cc(C(F)(F)F)nc3ccc(Cl)cc23)C1 [Example 65]	< 100 nM	–
CC(=O)N1C[C@@H](NC(=O)c2ccc(OC(F)(F)F)cc2)C[C@@H](Nc2cc(C(F)(F)F)nc3ccc(Cl)cc23)C1 [Example 66]	100 to 1000 nM	–
CC(=O)N1C[C@@H](NC(=O)c2ccc(C(F)(F)F)cc2)C[C@@H](Nc2cc(C(F)(F)F)nc3ccc(Cl)cc23)C1 [Example 67]	100 to 1000 nM	–
CC(=O)N1C[C@@H](NC(=O)c2cnn(C3CCCCC3)c2)C[C@@H](Nc2cc(C(F)(F)F)nc3ccc(Cl)cc23)C1 [Example 68]	< 100 nM	–
CC(=O)N1C[C@@H](NC(=O)c2cnn(-c3ccccc3)c2)C[C@@H](Nc2cc(C(F)(F)F)nc3ccc(Cl)cc23)C1 [Example 69]	100 to 1000 nM	–
CC(=O)N1C[C@@H](NC(=O)c2cnn(-c3ccc(F)cc3)c2)C[C@@H](Nc2cc(C(F)(F)F)nc3ccc(Cl)cc23)C1 [Example 70]	100 to 1000 nM	–
CC(=O)N1C[C@@H](Nc2nnc(-c3ccc(F)cc3)o2)C[C@@H](Nc2cc(C(F)(F)F)nc3ccc(Cl)cc23)C1 [Example 71]	> 1000 nM	–
CS(=O)(=O)Nc1cccc(C(=O)N[C@H]2C[C@@H](Nc3cc(C(F)(F)F)nc4ccc(Cl)cc34)CN(CC(F)F)C2)c1 [Example 73]	< 100 nM	–
O=C(N[C@H]1C[C@@H](Nc2cc(C(F)(F)F)nc3ccc(Cl)cc23)CS(=O)(=O)C1)c1ccc(F)cc1 [Example 140]	> 1000 nM	–
